Two molecules from EP4781986A1, “PHARMACEUTICAL COMPOSITION HAVING IMPROVED PHARMACOKINETIC PROPERTIES” (Sichuan Purity Pharmaceutical Co., Ltd., priority 2023, dated 2025) can be followed below.

The structures appear in SMILES notation. Read-outs that look alike come from different tables or passages of the source.

Data set [1] deals with Plasma of cynomolgus monkey. Nature of the data set: plasma protein binding rate test, equilibrium dialysis (monkey). Type of data set: in vitro ADME. Particulars: 1 µM, 37°C, 6 hours. Here is the method: (§1) Protein binding rates of the compound of the present invention in plasma of rat, monkey and human were determined by an equilibrium dialysis method. Tested compounds of the present invention were the compounds in Examples 6 and 8.
(§2) 3.1 A dry dialysis membrane was rinsed with ultrapure water for 2-3 times, and then soaked in a phosphate buffer for 1 hour for later use. Polytetrafluoroethylene module was soaked in 20% ethanol for 30 minutes, and then surface moisture was dried with dust-free paper for later use. The pretreated dialysis membrane was assembled into a dialysis plate according to the product specification, and one side (receptor compartment) of an osmotic membrane in each dialysis well was added with 100 µL of receptor fluid (100 mM phosphate buffer solution plus 0.002% Tween 80).
(§3) 3.2 The plasma was put into a centrifuge tube, a working solution of a tested substance was added into the plasma, wherein a final concentration was 1 µM, and the mixture was turned upside down and mixed evenly (this step was carried out in ice bath). 20 µL of drug-containing plasma each was taken, and was respectively transferred to a 96-well sample plate according to two parts in parallel, and stored in a refrigerator at -20°C as a T0 sample.
(§4) 3.3 Another 100 µL of the above drug-containing plasma was transferred to the other side (sample compartment) of the membrane in the dialysis device according to two parts in parallel, and incubated under vibration at a constant temperature of 37°C for 6 hours. […]
(§5) A plasma protein binding rate and a recovery rate of the compound in plasma were calculated by the following formulas: dissociation percentage (%) = CB /CA; [formula] plasma protein binding rate (fb%) = 1−dissociation percentage (%); [formula] recovery rate (%) = (CB+CA)/CT0 [formula] wherein CB was a concentration of the compound in the receptor fluid after equilibrium dialysis; CA was a concentration of the compound in the drug-containing plasma after equilibrium dialysis; and CT0 was an initial concentration of the compound in plasma.
(In general: In equilibrium dialysis only unbound substance equilibrates across the membrane.)

The next data set concerns Plasma of human. Put plainly: plasma protein binding rate test, equilibrium dialysis (human). Type of data set: in vitro ADME. The conditions noted are these: 1 µM, 37°C, 6 hours. Here is the method:
as §1, §2, §3, §4, §5

Data set [2] in a line: stability test in liver microsomes (rat). Type of data set: in vitro ADME. Particulars: Rat liver microsomes. The method, then:
The stability of the compound of the present invention in liver microsomes of rat, monkey and human was determined. Tested compounds of the present invention were the compounds in Examples 6 and 8 , and a control drug was Zavegepant.
3.2 An appropriate amount of liver microsome solution was transferred into a 1 mL 96-deep-well plate, added with a tested drug liquid (or a probe substrate solution), and pre-incubated in a thermal mixer at 37°C for 5 minutes. Two parts of mixed solutions were taken out from the system and added with 1×PBS to replace NADPH, and the mixed solutions were taken out at 0 and 60 minutes respectively, and added with methanol (containing an internal standard) to terminate the reaction. In the remaining mixed system, each well was added with NADPH to start the reaction. In the tested substance group, mixed solutions were taken out from the system at 0, 5, 15, 30, 45 and 60 minutes, and in the control group, mixed solutions were taken out from the system at 0, 30 and 60 minutes, and the mixed solutions were added methanol (containing an internal standard) to terminate the reaction. All samples of the terminated reaction were mixed evenly and centrifuged in a centrifuge at 3800 rpm for 15 minutes, and the supernatant was taken for LC-MS/MS analysis.
A peak area was determined by an extracted ion chromatogram. A slope value k was determined by linear regression of a remaining percentage of a parent drug relative to a natural logarithm of an incubation time curve. According to the slope, in-vitro half-life periods (t1/2) were respectively calculated, and in-vitro intrinsic clearance rates (CLint, represented by µL/min/mg protein) were calculated. Calculation formulas were as follows: t1/2 = ln2/k = 0.693/k; and CLint = 0.693/t1/2 /liver microsome protein concentration [formula]
Background: Microsomes from liver hold many membrane-bound enzymes, among them those of drug oxidation.

Data set [3] can be described thus: PK properties in monkeys with or without alkyl glycoside, intravenous route and nasal spray. Particulars: for bioavailability / Tmax / AUC / Cmax / half-life / Vd: cynomolgus monkey, plasma; for bioavailability: read-out: Bioavailability F%; for Tmax: read-out: Time to peak Tmax; for AUC: read-out: Area under curve AUC; for Cmax: read-out: Concentration to peak Cmax; for half-life: read-out: Half-life period t1/2 (converted); for Vd: read-out: Volume of distribution steady-state Vss; for Tmax(DDM 0.2%)/ Tmax(DDM 0%) / onset time (Tmax) shortened by: monkeys, intranasal; for Tmax(DDM 0.2%)/ Tmax(DDM 0%): 0.2% DDM vs without DDM; for onset time (Tmax) shortened by: with vs without alkyl glycoside. Type of data set: in vivo, cynomolgus monkey. The method, then:
Species: cynomolgus monkey, male, 2-5 kg. Source: Ankai Yibo (Zhanjiang) Biotechnology Co., Ltd., Laboratory Animal Production License No.: SCXK (Yue) 2019-0046. Quantity: 3 cynomolgus monkeys were intravenously administered and 3 cynomolgus monkeys were administered by a nasal spray.
2.1 An appropriate amount of drug was accurately weighed and added with 50 mM succinate buffer (diluted with D5W, pH=5-6), and mixed evenly and dissolved fully in an ultrasonic and vortexed mode to obtain a 0.5 mg/mL drug solution for intravenous administration.
2.2 An appropriate amount of drug was accurately weighed and added with a solvent 1: 50 mM succinate buffer (diluted with pure water, pH=5-6), and mixed evenly and dissolved fully in an ultrasonic and vortexed mode to obtain a 20 mg/mL drug solution, which was put into a nasal spraying device for administration by the nasal spray, 100 µL/spray.
2.3 An appropriate amount of drug was accurately weighed and added with a solvent 2: 50 mM succinate buffer (pH=5-6) containing 0.2% dodecyl-β-D-maltoside, and mixed evenly and dissolved fully in an ultrasonic and vortexed mode to obtain a 20 mg/mL drug solution, which was put into a nasal spraying device for administration by the nasal spray, 100 µL/spray.
5 minutes, 10 minutes, 15 minutes, 0.5 hour, 1 hour, 2 hours, 4 hours, 6 hours, 8 hours, 10 hours, 12 hours and 24 hours after administration.
Blood was collected through a saphenous vein or a cephalic vein, about 0.6 mL of each sample was collected, EDTA-K2 was used for anticoagulation, the collected blood sample was placed on ice, and plasma was centrifugally separated within 2 hours (at 2000 g and 2-8°C for 10 minutes). The collected plasma samples were stored in a refrigerator at -80°C before analysis, and the remaining plasma samples after analysis were continuously stored in the refrigerator at -80°C for temporary storage.
A concentration of a specified compound in plasma was determined by LC-MS/MS, and main pharmacokinetic parameters were calculated by a Winnolin 8.3 non-compartmental model. When the pharmacokinetic parameters were calculated, BLQ before Cmax (comprising "No peak") was calculated as 0; and BLQ (comprising "No peak") after Cmax was excluded from the calculation.

[4] abbreviates: cynomolgus monkeys, IV@0.5 mg/kg.
Where [5] appears, read: male, other: intranasal (nasal spray), 1 mg/kg, cynomolgus monkeys, IN@1 mg/kg (Solvent 1, no DDM).
The mark [6] stands for this setting: male, other: intranasal (nasal spray), 1 mg/kg, cynomolgus monkeys, IN@1 mg/kg (Solvent 2, 0.2% dodecyl-β-D-maltoside).
Setting [7] is: male, other: intranasal (nasal spray), cynomolgus monkeys, IN@1 mg/kg (Solvent 2, 0.2% dodecyl-β-D-maltoside).
Setting [8] is: male, other: nasal spray (intranasal), cynomolgus monkeys, IN@1 mg/kg (Solvent 1, no DDM).
Setting [9] is: male, cynomolgus monkeys, IV@0.5 mg/kg.
[10] abbreviates: 1 mg/kg, cynomolgus monkeys, IN@1 mg/kg (Solvent 1, no DDM).
The mark [11] stands for this setting: 1 mg/kg, cynomolgus monkeys, IN@1 mg/kg (Solvent 2, 0.2% dodecyl-β-D-maltoside).
The mark [12] stands for this setting: iv, 0.5 mg/kg, cynomolgus monkeys, IV@0.5 mg/kg.

Take `Cc1cc(C[C@@H](NC(=O)N2CCC(c3cc4c([nH]c3=O)SCC4)CC2)C(=O)N2CCN(C3CCN(C)CC3)CC2)cc2cn[nH]c12` [Example 8, (R)-N-(3-(7-methyl-1H-indazole-5-yl)-1-(4-(1-methylpiperidine-4-yl)piperazine-1-yl)-1-oxopropan-2-yl)-4-(6-oxo-2,3,6,7-tetrahydrothieno[2,3-b]pyridine-5-yl)piperidine-1-formamide]: the “fb (%)” value in data set [1] was 47.7%. Further, the “fb (%)” value in the data set with Plasma of human turned out to be 64.1%. The “% remaining (60 min)” value in data set [2] came out at 90.7%. Moreover, the “Apparent clearance CL” value in data set [3] (setting [4]) worked out at 9.27 mL/min/kg. Further, in data set [3] (setting [5]), the bioavailability – broadly, the share of a dose that reaches the circulation, judged against a reference dose that is usually intravenous – is 2.5% and the Tmax (commonly the time at which the peak concentration occurs) came out at 1 h. Also, in data set [3] (setting [6]), the bioavailability is 26.4% and the Tmax was approximately 0.17 h. In data set [3] (setting [7]), the AUC (commonly the area under the concentration-time curve, a measure of exposure) was determined as 412 ng·h/mL; the Cmax came out at 401 ng/mL; the half-life is 4.92 h. In addition, in data set [3] (setting [8]), the AUC was determined as 46.1 ng·h/mL, the Cmax worked out at 13.4 ng/mL and the half-life was 5.58 h. For the same molecule, in data set [3] (setting [9]), the AUC amounted to 924 ng·h/mL, the Cmax turned out to be 2280 ng/mL, the half-life is 4.98 h and the Vd came out at 0.738 L/kg. Also, in data set [3], the “Tmax(DDM 0.2%)/ Tmax(DDM 0%)” value is recorded as 16.7% and the “onset time (Tmax) shortened by” value is listed as 83.3%.
Take `Cc1cc(C[C@@H](NC(=O)N2CCC(c3cc4c([nH]c3=O)SCCC4)CC2)C(=O)N2CCN(C3CCN(C)CC3)CC2)cc2cn[nH]c12` [Example 6, (R)-N-(3-(7-methyl-1H-indazole-5-yl)-1-(4-(1-methylpiperidine-4-yl)piperazine-1-yl)-1-oxopropan-2-yl)-4-(7-oxo-3,4,7,8-tetrahydro-2H-thiopyrano[2,3-b]pyridine-6-yl)piperidine-1-formamide]: in data set [1], the “fb (%)” value is on record as 61.3%. Also, the “fb (%)” value in the data set on Plasma of human is 76.7%. Further, in data set [2], the CLint stood at 2.4 µL/min/mg and the “% remaining (60 min)” value is 91.5%. In data set [3] (setting [10]), the exposure (AUC) came out at 43.2 ng·h/mL, the bioavailability came to 1.99%, the Cmax was found to be 12.7 ng/mL and the half-life was 9 h. Moreover, in data set [3] (setting [10]), the Tmax amounted to 1 h. Also, in data set [3] (setting [11]), the exposure (AUC) stood at 780 ng·h/mL, the bioavailability came out at 29.8%, the Cmax was determined as 663 ng/mL and the half-life is 5.57 h. In addition, in data set [3] (setting [11]), the Tmax was approximately 0.17 h. For the same molecule, in data set [3] (setting [12]), the area under the curve (AUC) came out at 1140 ng·h/mL, the Cmax is 3200 ng/mL and the half-life was 4.98 h. In addition, in data set [3] (setting [4]), the Vd turned out to be 0.652 L/kg. For the same molecule, in data set [3], the “Tmax(DDM 0.2%)/ Tmax(DDM 0%)” value came out at 16.7% and the “onset time (Tmax) shortened by” value is listed as 83.3%.
